In patent US10577369B2, “Substituted quinazolinones for inhibiting PI3K” (priority 2016, dated 2020):
Read-outs that look alike come from different tables or passages of the source.

Columns and labels:
[1] = test system: diffuse large B-cell lymphoma (DLBCL) and acute lymphocytic leukemia (ALL) cells; assay: Apoptosis of DLBCL and ALL cells by SDS-PAGE / immunoblotting (caspase 3, 9, PARP cleavage); assay type: cell-based; conditions: 50 μM, 36 hours; FIG. 4
Method: Immunoblotting analysis was performed using antibodies of these, and glyceraldehyde-3-phosphate dehydrogenase (GAPDH) was used as a loading control.

SupB15 (ALL) cells = assay: Growth inhibition of leukemia cells (CCK-8), SupB15; assay type: cell-based; conditions: Homo sapiens, read-out: LC50 SupB15 (ALL)
Method: (§1) Cell growth-inhibiting effects on the DLBCL-derived cells and the ALL-derived cells were evaluated by measuring the absorbance of cell counting kit-8 (CCK-8) dye. During the last 3 hours of the 48 hours, […] of a CCK-8 dye was added to each plate and then cultured.
(§2) All data are expressed as the mean (±SD) of three independent experiments.

SUDHL5 (DLBCL) cells = assay: Growth inhibition of lymphoma cells (CCK-8), SUDHL5; assay type: cell-based; conditions: Homo sapiens, read-out: LC50 SUDHL5 (DLBCL)
Method: as §1, §2

rats = assay: Single dose toxicity test in rats; assay type: in vivo, rat; conditions: single oral dose, female rats, observed day 1 to day 2; approximate lethal dose
Method: The compound of Formula 7 and the compound of Formula 8 were orally administered to eight six-week-old female rats, to observe the single dose oral toxicity thereof and to obtain an approximate lethal dose. The dosage was set at 10 mL/kg, and the dosage for each rat was calculated based on body weight. Each compound was administered at doses of 100 mg/kg, 300 mg/kg, 900 mg/kg, and 1,500 mg/kg, and general symptoms were observed once a day from day 1 to day 2 after administration.

PI3K p110β = biological target: T1, PI3K p110β (Homo sapiens, UniProt P42338); assay: PI3K kinase activity test (Adapta kinase assay), p110β; assay type: biochemical
T1 construct: purchased Thermo Fisher Scientific Inc. (SelectScreen Services)
T1 sequence (P42338 whole entry): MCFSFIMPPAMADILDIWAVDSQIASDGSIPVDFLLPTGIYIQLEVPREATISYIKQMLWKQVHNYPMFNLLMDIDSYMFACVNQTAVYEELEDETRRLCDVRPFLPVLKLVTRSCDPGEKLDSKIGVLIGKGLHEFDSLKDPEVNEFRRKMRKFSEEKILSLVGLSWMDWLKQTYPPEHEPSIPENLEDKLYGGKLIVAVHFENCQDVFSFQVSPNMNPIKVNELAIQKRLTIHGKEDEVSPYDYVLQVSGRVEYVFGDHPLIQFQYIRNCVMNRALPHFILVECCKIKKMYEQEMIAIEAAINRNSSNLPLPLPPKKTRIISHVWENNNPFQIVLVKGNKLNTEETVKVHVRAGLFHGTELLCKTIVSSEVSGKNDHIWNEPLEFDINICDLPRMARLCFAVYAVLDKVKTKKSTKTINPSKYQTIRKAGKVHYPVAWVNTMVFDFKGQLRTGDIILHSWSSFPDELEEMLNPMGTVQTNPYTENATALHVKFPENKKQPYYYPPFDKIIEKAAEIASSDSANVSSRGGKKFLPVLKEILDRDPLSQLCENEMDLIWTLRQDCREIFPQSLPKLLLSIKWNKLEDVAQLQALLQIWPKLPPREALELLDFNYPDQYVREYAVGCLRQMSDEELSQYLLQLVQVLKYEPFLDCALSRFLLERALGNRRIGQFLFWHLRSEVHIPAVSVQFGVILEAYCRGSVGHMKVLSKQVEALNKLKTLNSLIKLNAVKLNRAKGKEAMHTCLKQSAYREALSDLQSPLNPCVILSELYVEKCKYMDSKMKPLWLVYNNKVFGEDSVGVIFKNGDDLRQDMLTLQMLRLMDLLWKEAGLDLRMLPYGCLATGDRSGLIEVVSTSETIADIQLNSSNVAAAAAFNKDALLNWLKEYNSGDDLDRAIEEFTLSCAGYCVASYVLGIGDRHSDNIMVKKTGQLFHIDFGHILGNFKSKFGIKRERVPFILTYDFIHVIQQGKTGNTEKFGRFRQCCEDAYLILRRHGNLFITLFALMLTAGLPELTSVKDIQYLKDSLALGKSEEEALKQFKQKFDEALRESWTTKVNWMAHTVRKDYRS
T1 sequence (P27986 whole entry partner): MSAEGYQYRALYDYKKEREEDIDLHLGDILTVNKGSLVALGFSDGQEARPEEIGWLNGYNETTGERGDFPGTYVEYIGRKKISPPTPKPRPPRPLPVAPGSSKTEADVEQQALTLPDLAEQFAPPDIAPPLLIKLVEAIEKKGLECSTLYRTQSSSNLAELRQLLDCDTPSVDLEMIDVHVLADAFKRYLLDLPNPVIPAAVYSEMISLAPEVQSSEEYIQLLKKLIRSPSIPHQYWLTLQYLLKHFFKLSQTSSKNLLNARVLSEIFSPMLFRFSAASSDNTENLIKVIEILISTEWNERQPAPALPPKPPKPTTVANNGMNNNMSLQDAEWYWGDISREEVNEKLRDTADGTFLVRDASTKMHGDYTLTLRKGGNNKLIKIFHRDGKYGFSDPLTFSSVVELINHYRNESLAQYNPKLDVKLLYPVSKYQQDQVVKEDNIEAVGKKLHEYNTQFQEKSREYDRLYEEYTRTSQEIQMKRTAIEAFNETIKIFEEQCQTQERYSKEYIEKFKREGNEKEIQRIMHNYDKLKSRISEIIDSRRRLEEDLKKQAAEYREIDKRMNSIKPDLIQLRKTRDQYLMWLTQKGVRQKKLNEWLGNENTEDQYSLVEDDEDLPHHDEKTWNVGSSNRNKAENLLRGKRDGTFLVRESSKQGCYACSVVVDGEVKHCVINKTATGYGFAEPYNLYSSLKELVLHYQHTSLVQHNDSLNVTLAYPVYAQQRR
Method: (§3) An experiment was conducted using a homogeneous, fluorescence-based immunoassay, which is Adapta kinase assay. SelectScreen™ Services available from Thermo Fisher Scientific Inc. was carried out.

[2] = test system: diffuse large B-cell lymphoma (DLBCL) and acute lymphocytic leukemia (ALL) cells; assay: Apoptosis of DLBCL and ALL cells by flow cytometry (Annexin V-FITC/PI); assay type: cell-based; conditions: 50 μM, 24 hours, FIG. 5
Method: The cells were washed with PBS, and then suspended in a binding buffer. 5 μl of an Annexin V-FITC stock solution (Becton Dickinson Science, Inc) and 5 μl of PI (20 μg/ml) were added thereto, followed by incubation at room temperature for 15 minutes with light-shielding, and then the target material was quantified on FACScan™ (Becton Dickinson) by flow cytometry.

MOLT4 (ALL) cells = assay: Growth inhibition of leukemia cells (CCK-8), MOLT4; assay type: cell-based; conditions: Homo sapiens, read-out: LC50 MOLT4 (ALL)
Method: as §1, §2

PI3K p110δ = biological target: T2, PI3K p110δ (Homo sapiens, UniProt O00329); assay: PI3K kinase activity test (Adapta kinase assay), p110δ; assay type: biochemical; conditions: for IC50: Adapta kinase assay; for ratio PI3Kα/PI3Kδ, as IC50 values / ratio PI3Kβ/PI3Kδ, as IC50 values / ratio of PI3Kγ/PI3Kδ: selectivity, ratio of IC50 values
T2 construct: purchased Thermo Fisher Scientific Inc. (SelectScreen Services)
T2 sequence (O00329 whole entry): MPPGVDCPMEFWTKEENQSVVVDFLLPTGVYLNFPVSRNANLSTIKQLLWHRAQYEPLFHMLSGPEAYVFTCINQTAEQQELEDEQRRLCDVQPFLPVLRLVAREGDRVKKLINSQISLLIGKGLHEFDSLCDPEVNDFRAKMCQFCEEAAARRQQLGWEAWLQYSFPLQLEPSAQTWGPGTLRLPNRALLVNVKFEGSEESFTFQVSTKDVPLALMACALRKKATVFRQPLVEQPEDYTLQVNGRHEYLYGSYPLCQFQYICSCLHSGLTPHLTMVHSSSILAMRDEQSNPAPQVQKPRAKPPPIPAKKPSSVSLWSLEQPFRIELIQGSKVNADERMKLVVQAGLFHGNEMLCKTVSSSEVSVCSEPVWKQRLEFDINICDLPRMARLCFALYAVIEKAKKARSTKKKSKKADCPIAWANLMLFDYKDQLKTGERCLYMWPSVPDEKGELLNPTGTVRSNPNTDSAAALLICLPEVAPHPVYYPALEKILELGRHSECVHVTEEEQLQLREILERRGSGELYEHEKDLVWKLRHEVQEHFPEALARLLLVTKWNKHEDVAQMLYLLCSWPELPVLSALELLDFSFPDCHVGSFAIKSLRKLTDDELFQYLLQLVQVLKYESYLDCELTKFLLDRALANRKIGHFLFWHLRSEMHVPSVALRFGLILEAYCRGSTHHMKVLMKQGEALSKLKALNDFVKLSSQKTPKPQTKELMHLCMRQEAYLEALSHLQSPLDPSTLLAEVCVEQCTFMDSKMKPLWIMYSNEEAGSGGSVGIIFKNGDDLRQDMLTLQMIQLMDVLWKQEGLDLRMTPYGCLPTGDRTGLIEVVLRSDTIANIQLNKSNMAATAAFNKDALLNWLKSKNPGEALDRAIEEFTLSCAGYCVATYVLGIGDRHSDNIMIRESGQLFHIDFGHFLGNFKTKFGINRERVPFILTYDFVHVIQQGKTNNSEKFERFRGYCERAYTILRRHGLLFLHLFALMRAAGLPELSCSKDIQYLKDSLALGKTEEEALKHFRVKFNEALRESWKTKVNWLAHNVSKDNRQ
T2 sequence (P27986 whole entry partner): as the sequence (P27986 whole entry partner) above
Method: as §3

PI3K p110α = biological target: T3, PI3K p110α (Homo sapiens, UniProt P42336); assay: PI3K kinase activity test (Adapta kinase assay), p110α; assay type: biochemical
T3 construct: purchased Thermo Fisher Scientific Inc. (SelectScreen Services)
T3 sequence (P42336 whole entry): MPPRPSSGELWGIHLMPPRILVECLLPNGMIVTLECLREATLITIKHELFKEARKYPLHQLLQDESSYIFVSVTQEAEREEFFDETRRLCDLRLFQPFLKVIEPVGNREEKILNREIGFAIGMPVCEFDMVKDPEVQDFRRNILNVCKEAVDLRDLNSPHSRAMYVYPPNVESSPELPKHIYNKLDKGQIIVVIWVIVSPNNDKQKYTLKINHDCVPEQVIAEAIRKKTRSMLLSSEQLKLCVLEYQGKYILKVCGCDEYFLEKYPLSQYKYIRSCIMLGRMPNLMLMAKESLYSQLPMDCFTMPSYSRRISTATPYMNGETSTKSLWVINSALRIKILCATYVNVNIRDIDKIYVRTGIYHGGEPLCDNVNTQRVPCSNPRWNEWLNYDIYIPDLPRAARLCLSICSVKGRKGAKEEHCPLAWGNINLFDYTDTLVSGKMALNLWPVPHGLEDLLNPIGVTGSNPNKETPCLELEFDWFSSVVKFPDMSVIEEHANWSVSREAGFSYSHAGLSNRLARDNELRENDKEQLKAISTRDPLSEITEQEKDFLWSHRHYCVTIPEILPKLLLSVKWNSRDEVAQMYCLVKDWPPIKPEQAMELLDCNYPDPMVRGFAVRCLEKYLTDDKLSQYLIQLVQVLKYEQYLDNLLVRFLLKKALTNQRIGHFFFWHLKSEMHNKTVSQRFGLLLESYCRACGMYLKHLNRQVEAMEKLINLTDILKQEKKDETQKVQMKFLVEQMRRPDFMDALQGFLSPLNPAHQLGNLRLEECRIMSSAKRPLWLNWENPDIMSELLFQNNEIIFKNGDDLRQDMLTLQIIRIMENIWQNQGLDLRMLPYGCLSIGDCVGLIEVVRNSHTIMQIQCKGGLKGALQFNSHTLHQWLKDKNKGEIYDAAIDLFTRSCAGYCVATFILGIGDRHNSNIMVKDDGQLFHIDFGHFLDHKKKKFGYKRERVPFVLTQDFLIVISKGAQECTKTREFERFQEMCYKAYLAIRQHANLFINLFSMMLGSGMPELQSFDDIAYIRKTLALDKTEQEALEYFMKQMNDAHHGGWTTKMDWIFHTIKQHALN
T3 sequence (P27986 whole entry partner): as the sequence (P27986 whole entry partner) above
Method: as §3

Phospho-Akt (Ser473) = assay: AKT (Ser473) phosphorylation in leukemia and lymphoma cell lines (immunoblotting); assay type: cell-based; conditions: 1 μM, 1 hour; SUDHL 5, SUDHL 10, CCRF-SB, MOLT4; FIG. 2
Source text: Subsequently, cells were lysed and fractionated according to size, followed by immunoblotting with antibodies directed against Phospho-Akt (Ser473).

[3] = test system: human umbilical vein endothelial cells (HUVECs); assay: Angiogenesis inhibition, HUVEC tube formation; assay type: cell-based; conditions: HUVECs on basement membrane matrix, 18 hours; FIG. 7
Method: After 18 hours, tube formation was photographed using a Cytation™ 5 fluorescence microscope (BioTek), and the number of areas formed by branch points was counted using software (see FIG. 6).

PI3K p110γ = biological target: T4, PI3K p110γ (Homo sapiens, UniProt P48736); assay: PI3K kinase activity test (Adapta kinase assay), p110γ; assay type: biochemical
T4 construct: purchased Thermo Fisher Scientific Inc. (SelectScreen Services)
T4 sequence (P48736 whole entry): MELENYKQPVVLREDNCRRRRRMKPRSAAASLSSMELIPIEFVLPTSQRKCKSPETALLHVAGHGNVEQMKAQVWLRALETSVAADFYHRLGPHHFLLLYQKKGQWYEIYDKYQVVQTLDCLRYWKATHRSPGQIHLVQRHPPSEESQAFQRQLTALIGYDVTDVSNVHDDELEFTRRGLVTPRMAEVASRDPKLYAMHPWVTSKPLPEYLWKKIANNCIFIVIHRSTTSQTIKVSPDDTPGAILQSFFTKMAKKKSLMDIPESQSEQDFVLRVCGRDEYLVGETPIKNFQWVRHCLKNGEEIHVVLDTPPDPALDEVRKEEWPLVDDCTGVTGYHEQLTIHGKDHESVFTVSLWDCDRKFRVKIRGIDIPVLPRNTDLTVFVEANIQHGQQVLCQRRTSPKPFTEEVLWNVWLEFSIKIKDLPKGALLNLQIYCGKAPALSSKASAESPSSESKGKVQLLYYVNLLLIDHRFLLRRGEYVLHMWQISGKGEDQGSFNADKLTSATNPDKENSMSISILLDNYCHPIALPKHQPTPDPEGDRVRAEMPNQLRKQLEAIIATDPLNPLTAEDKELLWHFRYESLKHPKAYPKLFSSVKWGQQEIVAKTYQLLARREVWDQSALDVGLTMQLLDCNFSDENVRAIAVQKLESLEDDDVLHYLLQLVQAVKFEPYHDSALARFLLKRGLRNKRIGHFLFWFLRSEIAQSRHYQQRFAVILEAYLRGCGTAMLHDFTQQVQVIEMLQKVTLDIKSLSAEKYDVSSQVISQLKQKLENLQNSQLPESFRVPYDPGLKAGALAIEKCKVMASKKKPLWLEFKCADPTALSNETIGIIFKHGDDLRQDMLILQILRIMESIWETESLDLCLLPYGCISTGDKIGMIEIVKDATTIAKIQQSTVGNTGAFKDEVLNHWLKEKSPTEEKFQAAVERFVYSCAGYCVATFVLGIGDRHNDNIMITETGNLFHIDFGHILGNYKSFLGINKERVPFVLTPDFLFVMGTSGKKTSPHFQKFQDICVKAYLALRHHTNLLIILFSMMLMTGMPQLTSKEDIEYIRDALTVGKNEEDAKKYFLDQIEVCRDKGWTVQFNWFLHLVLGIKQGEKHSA
Method: as §3

[4] = test system: human umbilical vein endothelial cells (HUVECs); assay: Number of viable HUVECs treated with compound; assay type: cell-based; conditions: FIG. 8

| Compound | apoptosis compared with comparative drug idelalisib (SDS-PAGE) [1] | apoptosis induction (SDS-PAGE, immunoblotting) [1] | CC50 (SupB15 (ALL) cells; SUP-B15, 48 h) | CC50 (SUDHL5 (DLBCL) cells; SU-DHL-5, 48 h) | lethal dose (rats) | IC50 (PI3K p110β) | apoptosis induction compared with idelalisib (flow cytometry) [2] | CC50 (MOLT4 (ALL) cells; MOLT-4, 48 h) | IC50 (PI3K p110δ) | ratio PI3Kα/PI3Kδ, as IC50 values (PI3K p110δ) | ratio PI3Kβ/PI3Kδ, as IC50 values (PI3K p110δ) | ratio of PI3Kγ/PI3Kδ (PI3K p110δ) | IC50 (PI3K p110α) | reduction of AKT (Ser473) phosphorylation (Phospho-Akt (Ser473)) | inhibition of angiogenesis (tube formation) compared with idelalisib [3] | IC50 (PI3K p110γ) | cytotoxicity to HUVECs (number of viable cells) [4] | CC50 (SupB15 (ALL) cells; SUP-B15, 48 hours, CCK-8) | CC50 (SUDHL5 (DLBCL) cells; SU-DHL-5, 48 hours, CCK-8) | CC50 (MOLT4 (ALL) cells; MOLT-4, 48 hours, CCK-8) |
| --- | --- | --- | --- | --- | --- | --- | --- | --- | --- | --- | --- | --- | --- | --- | --- | --- | --- | --- | --- | --- |
| O=c1c2c(F)cccc2nc([C@@H](Nc2ncnc3nc[nH]c23)C2CC2)n1-c1ccccc1 [Formula 7, (S)-2-(((7H-purin-6-yl)amino)(cyclopropyl)methyl)-5-fluoro-3-phenylquinazolin-4(3H)-one] | apoptosis occurred more actively | induced apoptosis | > 20000 nM | 1100 nM | > 1,500 mg/kg | 105 nM | more effectively induced apoptosis than the comparative drug | 13700 nM | 0.5 nM | 412 | 210 | 51 | 206 nM | induced the reduction of AKT phosphorylation | inhibited angiogenesis more than the comparative drug | 25.7 nM | did not significantly affect the cytotoxicity |  |  |  |
| Cc1cccc2nc([C@@H](Nc3ncnc4nc[nH]c34)C3CC3)n(-c3ccccc3)c(=O)c12 [Formula 8, (S)-2-(((7H-purin-6-yl)amino)(cyclopropyl)methyl)-5-methyl-3-phenylquinazolin-4(3H)-one] | apoptosis occurred more actively | induced apoptosis | 16500 nM | 900 nM | 1,500 mg/kg | 162 nM | more effectively induced apoptosis than the comparative drug | 4900 nM | 0.09 nM | 1,488 | 1,800 | 95 | 134 nM | induced the reduction of AKT phosphorylation | inhibited angiogenesis more than the comparative drug | 8.6 nM | did not significantly affect the cytotoxicity |  |  |  |
| CC[C@H](Nc1ncnc2[nH]cnc12)c1nc2cccc(F)c2c(=O)n1-c1ccccc1 [Idelalisib, idelalisib, reference compound] |  |  |  |  |  |  |  |  |  |  |  |  |  |  |  |  |  | > 20000 nM | 3000 nM | > 20000 nM |
